Reference: patent publication US8697709B2, “Fused ring heteroaryl kinase inhibitors” (The Regents of the University of California, priority 2008, dated 2014)

Tested on: T315I Bcr-Abl BaF3 cells
Experiment: Cell proliferation (Resazurin) of T315I Bcr-Abl transduced BaF3 cells
Assay type: cell-based
Settings: two day treatment, without IL-3

CC(C)n1nc(-c2ccc(NC(=O)Nc3cccc(C(F)(F)F)c3)cc2)c2c(N)ncnc21 [AD57, 1-(4-(4-amino-1-isopropyl-1H-pyrazolo[3,4-d]pyrimidin-3-yl)phenyl)-3-(3-(trifluoromethyl)phenyl)urea]
inhibition of growth of T315I Bcr-Abl BaF3 cells: equally inhibits the growth
